These results are taken from patent US4038402A, “Method of effecting antihistaminic, antiserotonin and antiallergic actions” (priority 1974, dated 1977).

Data set [1] can be described thus: pharmacological activity in experiments on isolated organs and on intact animals (overall). As for the experimental part:
(§1) The pharmacological activity of said compounds has been tested in various experiments in isolated organs and on intact narcotized and non-narcotizedanimals. The tests were aimed at establishing and quantitatively determining antihistaminic, antiserotonin, cholinolytic, and also broncholytic activity of the preparations. Moreover, the action of the preparations on increased permeability of the vessels, their antiexudative, antiallergic action were tested on guinea pigs, actively sensitized with ovalbumin with the administration of the antigen in the form of aerosol in effective doses. The effect of the preparations on the central nervous system, namely on the spontaneous motor activity, and also the interaction of the preparations with hypnotic and stimulating preparations, was tested.

A further data set relates to histamine. The experiment in a line: antihistaminic and antiallergic activity compared with known preparations. The settings on record: for certain experimental antihistaminic and antiallergic activity relative to known preparations: compared with dimedrol and diprasin-pipolfen.
The subject of a further data set is ovalbumin. The experiment in a line: anaphylactic reaction of guinea pigs sensitized with ovalbumin, aerosol of ovalbumin. The format is in vivo. The settings on record: 30 mg/kg in the stomach. How it is done: as §1
Data set [2] can be described thus: toxicity (LD50) on various laboratory animals. It counts as in vivo. As for the experimental part:
The toxicity (LD50) of the preparations was determined with various methods of administration (intravenous, subcutaneous, in the stomach) on various laboratory animals.

Data set [3] deals with serotonin. To be noted: 30 mg/kg in the stomach; serotonin aerosol.
For the next data set, the system named is serotonin and histamine. The experiment in a line: time course of action on bronchoconstriction by serotonin and histamine (Koncett-Rossler method). It counts as in vivo, guinea pigs. The settings on record: after intravenous injection. From the text:
The broncheal muscle tone was examined in intact narcotized guinea pigs by the Koncett-Rossler method.

The subject of data set [4] is serotonin. To be noted: known antagonist; cited from earlier work.

Turning to `OC(c1ccccc1)(C1CCCCC1)C1CN2CCC1CC2` (centres unmarked) [(phenyl)-(cyclohexyl)-(quinuclidyl- 3) -carbinol], in data set [1], the pharmacological activity entry is reported as “high activity”.

For the molecule `OC(c1ccccc1)(c1cccs1)C1CN2CCC1CC2` (centres unmarked) [(phenyl)-(thienyl- 2')-(quinuclidyl- 3)carbinol], the pharmacological activity result in data set [1] was “high activity”.

In the case of `OC(c1cccs1)(c1cccs1)C1CN2CCC1CC2` (centres unmarked) [(quinuclidyl-3 )-di(thienyl- 2')-carbinol], in data set [1], the pharmacological activity entry was “high activity”.

With `COc1ccccc1C(O)(c1ccccc1OC)C1CN2CCC1CC2` (centres unmarked) [(quinuclidyl-3)-di(2'-methoxyphenyl)carbinol], the “certain experimental antihistaminic and antiallergic activity relative to known preparations” value with histamine is recorded as “superior”. Further, in the data set on ovalbumin, the “protection from anaphylactic reaction” value was “actively protects”.

Consider `OC(c1ccccc1)(c1ccccc1)C1CN2CCC1CC2` (centres unmarked) [(quinuclidyl-3)-diphenylcarbinol], for which the pharmacological activity entry in data set [1] is “high activity”. Also, the “times less toxic than dimedrol” value in data set [2] (given in the stomach) was 1.5 times. Further, the “times less toxic than dimedrol” value in data set [2] (given intravenously) turned out to be 1.5 times. For the same molecule, in the data set on histamine, the antihistaminic activity entry is “high antihistaminic activity”; the “certain experimental antihistaminic and antiallergic activity relative to known preparations” value was “superior”.

On to `CN(C)CCOC(c1ccccc1)c1ccccc1` [Dimedrol], for which the “persistence of the antiserotonin action” value in the data set with serotonin [3] was 4 to 6 h. The onset of effect result with serotonin and histamine is reported as “immediately”.

Turning to `CCN(CC)C(=O)[C@@H]1C=C2c3cccc4[nH]cc(c34)C[C@H]2N(C)C1` [LSD-25, diethylamide lysergic acid], the “activity as antagonist to serotonin” value with serotonin [4] was “one of the most active known antogonists to serotonin”. Further, in the data set with serotonin and histamine, the onset of effect entry is “immediately”.
